# Patent US7074825B2, “Composition and method for treating cancer” (priority 2002, dated 2006)
# Values joined by “and” are separate entries in the source; they are usually repeats but may differ in a detail not shown here. Identical values can stand only once. Like-named read-outs stand apart in the source and are kept apart here.
# How the values were obtained:
# [1] = tested on: Human PC-3 prostate adenocarcinoma cells; test: PC-3 cell proliferation, CellTiter 96, 72 h exposure; format: cell-based; details: for Growth (average percent cell survival relative to the control group): PC3; for IC50: PC-3 cells, estimated, read-out: IC50 (suppression of proliferation); for Absorbance (net absorbance at 490 nm, net growth after 72 h): PC-3
# Procedure: (§1) Seeding density was determined in the following pilot test. […] Incubation continued for an additional 48 h.
# (§2) Incubation continued for additional 72 h.
# [2] = tested on: DU145 cancer cell cultures; test: Cell phase distribution by flow cytometry (propidium iodine), DU145; format: cell-based, Human; details: genistein 10 μM, lovastatin […], γ-tocotrienol 5 μM, alone or all three together; for G2 phase cells: control 11.6%; for G1 phase cells: control 65.4%; for S phase cells: control […]
# Source text: (§3) Subsequent to the treatment of the cancer cells with these HGM-CoA reductase inhibitors, the cells were fixed in ethanol, treated with RNase and stained with propidium iodine. Fluorescent measurements were then made via a flow cytometer using a laser. A double discriminator was used as the primary gate to eliminate cell aggregates. The distribution profiles associated with the various phases (G1, S) were then obtained through the use of least squares fits of the frequency emission spectra.
# B16 melanoma cells = test: B16 melanoma cell proliferation (cell count / CellTiter 96); details: for Observed Growth (empirical percentage survival): 40 hour exposure; for Growth (average percent cell survival relative to the control group after 72 h exposure period): geranyl anthranilate 30 μM, alone or all three together
# Procedure: B16 melanoma cells were grown in monolayer culture (35×10 mm flasks) in 3 ml RPMI 1640 medium supplemented with 10% fetal bovine serum (FBS) and 80 mg gentamicin/L. The cultures, seeded with 3.3×10^4 cells/mL, were incubated for 24 h at 37° C. in a humidified atmosphere of 5% CO2. The medium was decanted and replaced with fresh medium containing the test agents. Tocotrienol, perillyl alcohol, and geranyl- or farnesyl-hydroquinone ethers were dissolved in ethanol; and lovastatin and genistein were dissolved in dimethyl sulfoxide, DMSO. The incubations were continued for an additional 48 h. All cultures contained 1 ml/L each of ethanol and DMSO. The medium and detached cells were decanted, the monolayer was washed twice with Hanks' Balanced Salt Solution (HBSS) and then incubated with a trypsin-EDTA solution at 37° C. for 2 min. Trypsin was inactivated by suspending the cells in medium containing 10% FBS. The trypsinized cells were pelleted at 250 xg and resuspended in HBSS. Viable cells, cells that excluded 0.4% trypan blue were counted with a hemocytometer; 24-h cell counts were deducted from final cell counts to provide an estimate of the net increase in cell number.
# Measurement of B16 cell proliferation was confirmed by using CellTiter 96, Aqueous One Solution (Promega). Seeding density was determined in the following pilot test. B16 cells were maintained in monolayer culture (96-well tissue culture plate) in 0.1 mL of the medium described above. Cultures, seeded in escalating densities (0-8000 cells/well with a 500-cell interval), were incubated for 72 h at 37° C. in a humidified atmosphere of 5% CO2. At 24 h the medium was decanted from each well and replaced with 0.1 mL fresh medium. The 72-h cell populations were determined by adding 20 μl of CellTiter 96, Aqueous One Solution to each well; the plate was held in dark at 37° C. for 2 h and then read at 490 nm with a SPECTRAmax, 190 multi-plate reader with SOFTmax, PRO version 3.0 (Molecular Devices). Cell survival data were assessed as absorbance versus cell seeding density. The absorbance has a linear correlation with cell seeding density up to 2000 B16 cells/well. The midpoint of cell inoculation density, 1000 cells/well, was chosen for B16 cell proliferation assay. This procedure of determining seeding density also applies to all other cell lines in which the CellTiter 96, Aqueous One Solution was used for proliferation assay. In the proliferation assay, B16cells were incubated in 96-well plates for 24 h. The medium was decanted from each well and replaced with 0.1 mL fresh medium containing the test agents. Incubation continued for an additional 48 h. Cell populations of all wells were determined according to CellTiter 96 procedure as described above. Cell proliferation represents the net absorbance, the difference in absorbance between final and 24-h measurements.
# [3] = tested on: Human DU145 prostate carcinoma cells; test: DU145 cell proliferation, CellTiter 96, 72 h exposure; format: cell-based; details: for Absorbance (net absorbance at 490 nm, net growth after 72 h) / Growth (average percent cell survival relative to the control group) / Growth (average percent cell survival relative to the control group after 72 h exposure period): DU145; for Growth (average percent cell survival relative to the control group after 72 h exposure period): lovastatin […], alone or all three together; for IC50: DU145 cells, estimated, read-out: IC50 (suppression of proliferation)
# Procedure: as §1, §2
# [4] = tested on: Human LNCaP prostate carcinoma cells; test: LNCaP cell proliferation, CellTiter 96, 72 h exposure; format: cell-based
# Procedure: as §1, §2
# B16 cancer cell cultures = test: Cell phase distribution by flow cytometry (propidium iodine), B16; format: cell-based; details: genistein 5 μM, lovastatin 0.5 μM, geranyl anthranilate 30 μM, alone or all three together; for G2 phase cells: control 12.7%; for S phase cells: control 22.5%; for G1 phase cells: control 64.9%
# Source text: as §3
# [5] = genistein 5 μM, lovastatin 0.5 μM
# [6] = genistein 10 μM, γ-tocotrienol 5 μM
# [7] = perillyl alcohol 800 μM, negative = cell killing
molecule,measurement,setting,value
"CC(=O)O[C@H]1C(=O)[C@@]2(C)[C@H]([C@H](OC(=O)c3ccccc3)[C@]3(O)C[C@H](OC(=O)[C@H](O)[C@@H](NC(=O)c4ccccc4)c4ccccc4)C(C)=C1C3(C)C)[C@]1(OC(C)=O)CO[C@@H]1C[C@@H]2O [Taxol, taxol, reference compound]",Growth (average percent cell survival relative to the control group),[1]; taxol 2 nM,97 ± 5%
same,Growth (average percent cell survival relative to the control group),[1]; taxol 5 nM,71 ± 1%
"O=c1c(-c2ccc(O)cc2)coc2cc(O)cc(O)c12 [Genistein, genistein]",G2 phase cells,[2],15.8%
same,G1 phase cells,[2],64.9%
same,S phase cells,[2],19.3%
same,Growth (average percent cell survival relative to the control group),B16 melanoma cells; genistein 5 μM,83%
same,Observed Growth (empirical percentage survival),B16 melanoma cells; genistein 5.0 μM,63%
same,Growth (average percent cell survival relative to the control group after 72 h exposure period),B16 melanoma cells; [5],73%
same,"Absorbance (net absorbance at 490 nm, net growth after 72 h)",[3]; genistein 10 μM,0.53
same,Growth (average percent cell survival relative to the control group),[3]; genistein 10 μM,100% and 93%
same,Growth (average percent cell survival relative to the control group after 72 h exposure period),[3]; [6],100%
same,"Absorbance (net absorbance at 490 nm, net growth after 72 h)",[3]; genistein 20 μM,0.34
same,Growth (average percent cell survival relative to the control group),[3]; genistein 20 μM,97%
same,"Absorbance (net absorbance at 490 nm, net growth after 72 h)",[3]; genistein 40 μM,0.20
same,Growth (average percent cell survival relative to the control group),[3]; genistein 40 μM,38 ± 10%
same,IC50,"[3]; Homo sapiens, DU-145",30 µM
same,IC50,[1]; Homo sapiens,70 ± 17 µM
same,Growth (average percent cell survival relative to the control group),[1]; genistein 10 μM,121 ± 3%
same,Growth (average percent cell survival relative to the control group),[1]; genistein 20 μM,87% and 95 ± 4%
same,Growth (average percent cell survival relative to the control group),[1]; genistein 40 μM,78% and 74 ± 11% and 84 ± 2%
same,"Absorbance (net absorbance at 490 nm, net growth after 72 h)",[1]; genistein 10 μM,0.43
same,"Absorbance (net absorbance at 490 nm, net growth after 72 h)",[1]; genistein 20 μM,0.39
same,"Absorbance (net absorbance at 490 nm, net growth after 72 h)",[1]; genistein 40 μM,0.32
same,Growth (average percent cell survival relative to the control group),[4]; genistein 10 μM,100%
same,Growth (average percent cell survival relative to the control group),[4]; genistein 20 μM,70% and 99%
same,G2 phase cells,B16 cancer cell cultures,10.8%
same,S phase cells,B16 cancer cell cultures,21.7%
same,G1 phase cells,B16 cancer cell cultures,67.6%
γ-tocotrienol,G2 phase cells,[2],12.2%
same,G1 phase cells,[2],66.7%
same,S phase cells,[2],21.1%
same,Growth (average percent cell survival relative to the control group),B16 melanoma cells; γ-tocotrienol 5 μM,73%
same,Growth (average percent cell survival relative to the control group after 72 h exposure period),[3]; [6],87%
same,"Absorbance (net absorbance at 490 nm, net growth after 72 h)",[3]; γ-tocotrienol 5 μM,0.39
same,Growth (average percent cell survival relative to the control group),[3]; γ-tocotrienol 5 μM,87%
same,"Absorbance (net absorbance at 490 nm, net growth after 72 h)",[3]; γ-tocotrienol 10 μM,0.40
same,Growth (average percent cell survival relative to the control group),[3]; γ-tocotrienol 10 μM,68%
same,"Absorbance (net absorbance at 490 nm, net growth after 72 h)",[3]; γ-tocotrienol 20 μM,0.33
same,Growth (average percent cell survival relative to the control group),[3]; γ-tocotrienol 20 μM,70%
same,"Absorbance (net absorbance at 490 nm, net growth after 72 h)",[3]; γ-tocotrienol 30 μM,0.20
same,"Absorbance (net absorbance at 490 nm, net growth after 72 h)","[3]; γ-tocotrienol 40 μM, negative = cell killing",−0.05
same,IC50,[3],20 ± 2 µM
same,Growth (average percent cell survival relative to the control group),[1]; γ-tocotrienol 20 μM,100%
same,"Absorbance (net absorbance at 490 nm, net growth after 72 h)",[1]; γ-tocotrienol 40 μM,0.36
same,"Absorbance (net absorbance at 490 nm, net growth after 72 h)",[1]; γ-tocotrienol 80 μM,0.02
same,IC50,[1],39 µM
same,Growth (average percent cell survival relative to the control group),[4]; γ-tocotrienol 5 μM,100%
same,Growth (average percent cell survival relative to the control group),[4]; γ-tocotrienol 10 μM,76%
same,Growth (average percent cell survival relative to the control group),[4]; γ-tocotrienol 20 μM,70%
"CC(C)=CCC/C(C)=C/COC(=O)c1ccccc1N [Geranyl Anthranilate, geranyl anthranilate]",Growth (average percent cell survival relative to the control group after 72 h exposure period),B16 melanoma cells; [5],81%
same,G2 phase cells,B16 cancer cell cultures,9.8%
same,S phase cells,B16 cancer cell cultures,22.9%
same,G1 phase cells,B16 cancer cell cultures,67.3%
"CC(C)=CCCC(C)=CCCC(C)=CCO [Farnesol, farnesol]",Observed Growth (empirical percentage survival),B16 melanoma cells; farnesol 12.5 μM,84%
same,Observed Growth (empirical percentage survival),B16 melanoma cells; farnesol 25 μM,54%
same,Growth (average percent cell survival relative to the control group),[3]; farnesol 50 μM,38%
same,Growth (average percent cell survival relative to the control group),[3]; farnesol 100 μM,79 ± 11%
same,Growth (average percent cell survival relative to the control group),[1]; farnesol 50 μM,53 ± 5%
same,Growth (average percent cell survival relative to the control group),[1]; farnesol 100 μM,93 ± 7%
"C/C=C(\C)C(=O)OCC=C(C)CCC=C(C)CCC=C(C)C [Farnesyl Tiglate, farnesyl tiglate]",Growth (average percent cell survival relative to the control group),B16 melanoma cells; farnesyl tiglate 25 μM,70%
same,Growth (average percent cell survival relative to the control group),B16 melanoma cells; farnesyl tiglate 50 μM,49%
"C=C(C)[C@@H]1CC=C(CO)CC1 [Perillyl Alcohol, perillyl alcohol]","Absorbance (net absorbance at 490 nm, net growth after 72 h)",[3]; perillyl alcohol 100 μM,0.46
same,"Absorbance (net absorbance at 490 nm, net growth after 72 h)",[3]; perillyl alcohol 200 μM,0.40
same,"Absorbance (net absorbance at 490 nm, net growth after 72 h)",[3]; perillyl alcohol 400 μM,0.18
same,"Absorbance (net absorbance at 490 nm, net growth after 72 h)",[3]; [7],−0.06
same,"Absorbance (net absorbance at 490 nm, net growth after 72 h)","[3]; perillyl alcohol 1600 μM, negative = cell killing",−0.05
same,IC50,"[3]; Homo sapiens, DU-145",420 µM
same,IC50,[1]; Homo sapiens,480 µM
same,"Absorbance (net absorbance at 490 nm, net growth after 72 h)",[1]; perillyl alcohol 200 μM,0.34
same,"Absorbance (net absorbance at 490 nm, net growth after 72 h)",[1]; perillyl alcohol 400 μM,0.09
same,"Absorbance (net absorbance at 490 nm, net growth after 72 h)",[1]; perillyl alcohol 600 μM,0.06
same,"Absorbance (net absorbance at 490 nm, net growth after 72 h)",[1]; [7],−0.05
"CC[C@H](C)C(=O)O[C@H]1C[C@@H](C)C=C2C=C[C@H](C)[C@H](CC[C@@H]3C[C@@H](O)CC(=O)O3)[C@H]21 [Lovastatin, [1S-[1α(R*),3α,7β,8β(2S*,4S*), 8a.β.]]-2-methylbutanoic acid 1,2,3,7,8,8a-hexahydro-3,7-dimethyl-8-[2-(tetrahydro-4-hydroxy-6-oxo-2H-pyran-2-yl)ethyl]-1-naphthalenyl ester, reference compound]",G2 phase cells,[2],15.7%
same,G1 phase cells,[2],62.0%
same,S phase cells,[2],22.3%
same,Growth (average percent cell survival relative to the control group after 72 h exposure period),B16 melanoma cells; [5],71%
same,Growth (average percent cell survival relative to the control group),B16 melanoma cells; lovastatin 0.5 μM,100%
same,Growth (average percent cell survival relative to the control group),B16 melanoma cells; lovastatin 1.0 μM,83%
same,Growth (average percent cell survival relative to the control group),B16 melanoma cells; lovastatin 3.0 μM,42%
same,Growth (average percent cell survival relative to the control group after 72 h exposure period),[3]; [6],100%
same,Growth (average percent cell survival relative to the control group),[3]; lovastatin 3 μM,100%
same,Growth (average percent cell survival relative to the control group),[3]; lovastatin 3.0 μM,100%
same,"Absorbance (net absorbance at 490 nm, net growth after 72 h)",[3]; lovastatin 4 μM,0.37
same,"Absorbance (net absorbance at 490 nm, net growth after 72 h)",[3]; lovastatin 8 μM,0.30
same,"Absorbance (net absorbance at 490 nm, net growth after 72 h)",[3]; lovastatin 16 μM,0.18
same,"Absorbance (net absorbance at 490 nm, net growth after 72 h)",[3]; lovastatin 32 μM,0.15
same,IC50,"[3]; Homo sapiens, DU-145",18 ± 2 µM
same,IC50,[1]; Homo sapiens,2.2 ± 0.5 µM
same,Growth (average percent cell survival relative to the control group),[1]; lovastatin 0.75 μM,87 ± 3%
same,"Absorbance (net absorbance at 490 nm, net growth after 72 h)",[1]; lovastatin 1 μM,0.32
same,"Absorbance (net absorbance at 490 nm, net growth after 72 h)",[1]; lovastatin 2 μM,0.10
same,"Absorbance (net absorbance at 490 nm, net growth after 72 h)","[1]; lovastatin 4 μM, negative = cell killing",−0.02
same,Growth (average percent cell survival relative to the control group),[4]; lovastatin 3 μM,100%
same,Growth (average percent cell survival relative to the control group),[4]; lovastatin 3.0 μM,100%
same,G2 phase cells,B16 cancer cell cultures,9.3%
same,S phase cells,B16 cancer cell cultures,22.2%
same,G1 phase cells,B16 cancer cell cultures,68.5%
